# Source: patent publication US11890274B2 (JMM LICENSING LLC, priority 2015, dated 2024)
# Entries after “also recorded” stand apart in the source; their conditions may differ.
# Experiments:
# [1] = cited from earlier work
# [2] = tested on: Human breast adenocarcinoma cell line (MCF-7 (HTB-22)); experiment: 3H-thymidine uptake assay, breast cancer cell line; type: cell-based; settings: for Average Cpm / Cpm 1 / Cpm 2 / Cpm 3 / dose proportionality of the effect alone, percent inhibition of 3H-uptake (FIG. 4): MCF-7; for Average Cpm / Cpm 1 / Cpm 2 / Cpm 3: 24 hours post treatment; for dose proportionality of the effect alone, percent inhibition of 3H-uptake (FIG. 4): drug alone at lower doses
# Description: The cells were passaged onto 24-well plates at a concentration of 50,000 cells/well, in total medium volume of 1 mL (DMEM+10% FBS+0.01 mg/mL insulin+antibiotics). The cells were then allowed to attach and were incubated from 24 hours before treatment. Cells were then treated, in triplicate, with various concentrations of treatment articles. ^3H-thymidine (1 mCi/mL) was diluted to 1 μCi in 5 μL of medium (DMEM+10% FBS+0.01 mg/mL insulin+antibiotics) and then added to each well at 18-hr post treatment. […] Each well of cells was then lysed in 0.5 mL of 0.5N NaOH+0.5% SDS. Lysate was then transferred to scintillation tubes containing 1 mL if scintillation fluid for counting (3 min/sample).
# [3] = tested on: Human kidney clear cell carcinoma cell line Caki-I (HTB-46); experiment: 3H-thymidine uptake assay, renal cell carcinoma; type: cell-based; settings: for Average Cpm / Cpm 1 / Cpm 2 / Cpm 3: Caki-I, 24 hours post treatment; for Average cpm: pilot plating
# Description: Pilot plating experiments using Human kidney clear cell carcinoma cell line Caki-I (HTB-46). […] 0.1% DMSO, the test article solvent, in media was the control.
# The cells were passaged onto 24-well plates at a concentration of 30,000 cells/well, in total medium volume of 1 mL (RPMI 1640+10% FBS+antibiotics). The cells were then allowed to attach and were incubated from 24 hours before treatment. Cells were then treated, in triplicate, with various concentrations of treatment articles.
# ^3H-thymidine (1 mCi/mL) was diluted to 1 μCi in 5 μL of medium (RPMI 1640+10%/FBS+antibiotics) and then added to each well at either 18- or 42-hr post treatment, for the 24- and 48-hr time points respectively.
# Cells were then washed three times with 1 ML of DPBS at 24- or 48-hr post treatment to remove unincorporated ^3H-thymidine. Each well of cells was then lysed in 0.5 mL of 0.5N NaOH+0.5% SDS. Lysate was then transferred to scintillation tubes containing 1 mL if scintillation fluid for counting (3 min/sample).
# [4] = tested on: plaques, tangles, and cognitive defects; settings: mice; given before the establishment of plaques and tangles in the brain; cited from earlier work
compound,measurement,setting,value
"[H]/N=C(/N=C(N)N)N(C)C [Metformin, 1,1-Dimethylbiguanide]",standard dose therapeutic serum Cmax,[1]; standard dose,1-2 microgram/mL
same,Average Cpm,[2]; dosage 0.05 nM,1144 cpm
same,Cpm 1,[2]; dosage 0.05 nM,1267 cpm
same,Cpm 2,[2]; dosage 0.05 nM,1123 cpm
same,Cpm 3,[2]; dosage 0.05 nM,1041 cpm
same,Average Cpm,[2]; dosage 0.1 nM,2092 cpm
same,Cpm 1,[2]; dosage 0.1 nM,2238 cpm
same,Cpm 2,[2]; dosage 0.1 nM,2595 cpm
same,Cpm 3,[2]; dosage 0.1 nM,1444 cpm
same,Average Cpm,[2]; dosage 0.5 nM,1084 cpm
same,Cpm 1,[2]; dosage 0.5 nM,1283 cpm
same,Cpm 2,[2]; dosage 0.5 nM,1048 cpm
same,Cpm 3,[2]; dosage 0.5 nM,921 cpm
same,"dose proportionality of the effect alone, percent inhibition of 3H-uptake (FIG. 4)",[2],not dose proportional; also recorded: not dose-proportional
"CN(Cc1cnc2nc(N)nc(N)c2n1)c1ccc(C(=O)N[C@@H](CCC(=O)O)C(=O)O)cc1 [Methotrexate, N-[4-[[(2,4-diamino-6-pteridinyl)methyl]methylamino]benzoyl]L-glutamic acid]",Average Cpm,[3]; dosage 100 nM,11414 cpm
same,Cpm 1,[3]; dosage 100 nM,10636 cpm
same,Cpm 2,[3]; dosage 100 nM,12192 cpm
same,Cpm 3,[3]; dosage 100 nM,4932 cpm
same,Average cpm,"[3]; 2.5 nm, 24-hr post treatment",30659 cpm
same,Average cpm,"[3]; 2.5 nm, 48-hr post treatment",4811 cpm
same,Average cpm,"[3]; 5 nm, 24-hr post treatment",31148 cpm
same,Average cpm,"[3]; 5 nm, 48-hr post treatment",16772 cpm
same,Average cpm,"[3]; 10 nm, 24-hr post treatment",27266 cpm
same,Average cpm,"[3]; 10 nm, 48-hr post treatment",20251 cpm
same,Average cpm,"[3]; 20 nm, 24-hr post treatment",26144 cpm
same,Average cpm,"[3]; 20 nm, 48-hr post treatment",11273 cpm
CO[C@H]1C[C@@H]2CC[C@@H](C)[C@@](O)(O2)C(=O)C(=O)N2CCCC[C@H]2C(=O)O[C@H]([C@H](C)C[C@@H]2CC[C@@H](O)[C@H](OC)C2)CC(=O)[C@H](C)/C=C(\C)[C@@H](O)[C@@H](OC)C(=O)[C@H](C)C[C@H](C)/C=C/C=C/C=C/1C [Rapamycin],"effect on plaques, tangles, and cognitive defects",[4],"significantly reduce plaques, tangles, and cognitive defects"
same,standard therapeutic serum trough levels,[1]; considered clinically relevant for current uses,5 to 20 ng/mL
same,Average Cpm,[3]; dosage 1 nM,10651 cpm
same,Cpm 1,[3]; dosage 1 nM,10730 cpm
same,Cpm 2,[3]; dosage 1 nM,9692 cpm
same,Cpm 3,[3]; dosage 1 nM,11531 cpm
same,Average Cpm,[3]; dosage 5 nM,8758 cpm
same,Cpm 1,[3]; dosage 5 nM,8771 cpm
same,Cpm 2,[3]; dosage 5 nM,7473 cpm
same,Cpm 3,[3]; dosage 5 nM,10030 cpm
same,Average Cpm,[3]; dosage 10 nM,9111 cpm
same,Cpm 1,[3]; dosage 10 nM,9861 cpm
same,Cpm 2,[3]; dosage 10 nM,8987 cpm
same,Cpm 3,[3]; dosage 10 nM,8486 cpm
same,Average cpm,"[3]; 5 nm, 24-hr post treatment",14805 cpm
same,Average cpm,"[3]; 5 nm, 48-hr post treatment",8584 cpm
same,Average cpm,"[3]; 10 nm, 24-hr post treatment",12611 cpm
same,Average cpm,"[3]; 10 nm, 48-hr post treatment",7463 cpm
same,Average cpm,"[3]; 20 nm, 24-hr post treatment",12044 cpm
same,Average cpm,"[3]; 20 nm, 48-hr post treatment",6349 cpm
same,inhibition at 0.0005 µM,"[2]; Homo sapiens, MCF7, read-out: inhibitory effect (percent inhibition of 3H-uptake), rapamycin alone at 0.5 nM",25%
same,inhibition at 0.001 µM,"[2]; Homo sapiens, MCF7, read-out: inhibitory effect (percent inhibition of 3H-uptake), rapamycin alone at 1.0 nM",32%
same,Average Cpm,[2]; dosage 0.1 nM,1181 cpm
same,Cpm 1,[2]; dosage 0.1 nM,1041 cpm
same,Cpm 2,[2]; dosage 0.1 nM,1516 cpm
same,Cpm 3,[2]; dosage 0.1 nM,986 cpm
same,Average Cpm,[2]; dosage 0.5 nM,2543 cpm
same,Cpm 1,[2]; dosage 0.5 nM,2537 cpm
same,Cpm 2,[2]; dosage 0.5 nM,2524 cpm
same,Cpm 3,[2]; dosage 0.5 nM,2567 cpm
same,Average Cpm,[2]; dosage 1 nM,2294 cpm
same,Cpm 1,[2]; dosage 1 nM,3114 cpm
same,Cpm 2,[2]; dosage 1 nM,1220 cpm
same,Cpm 3,[2]; dosage 1 nM,2548 cpm
same,"dose proportionality of the effect alone, percent inhibition of 3H-uptake (FIG. 4)",[2],not dose proportional; also recorded: not dose-proportional
